According to paper PMC5062083, “Development of a one-pot assay for screening and identification of Mur pathway inhibitors in Mycobacterium tuberculosis” (Scientific Reports, 2016):
pIC50: −log10 of the molar value. Like-named read-outs stand apart in the source and are kept apart here.

Legend:
[1] = test system: Mur pathway (MurA-MurF) enzymes from Mtb; assay: one-pot assay reconstructing the Mur pathway (Pi release), inhibitor studies; format: biochemical, Mycobacterium tuberculosis; conditions: for Percentage inhibition, one-pot assay: at 100 μM concentration of compound; for pIC50: six compound concentrations 5-100 μM, 15 min pre-incubation, 30 min at 37 °C, 5% DMSO control
MurA = MurA (Mycobacterium tuberculosis, UniProt P9WJM1); assay: inhibition of individual Mur enzyme: MurA; format: biochemical; conditions: for remaining activity at 100 µM: at 100 μM compound, vs 'no drug' control (5% DMSO), read-out: RA (residual activity), MurA
Description: The reaction was performed in a micro-titer plate at 37 °C for 30 minutes and terminated by the addition of Pi Colorlock™ Assay reagent. Absorbance was measured at 630 nm and the amount of Pi released was calculated from the standard phosphate curve. […] The control reactions contained all the components except MurA. The net Pi was calculated by subtracting total Pi in the control reaction from the total Pi after the completion of the assay. To get a large assay window and to avoid saturation of Pi, optimization of assays were carried out at substrate concentrations so as not to exceed the assay signal beyond 2.0 absorbance units as recommended by the manufacturer of PiColorlock™ Assay kit.
(§1) Tested compounds at various concentrations (5–100 μM) were pre-incubated with enzymes for 15 mins, followed by the addition of remaining constituents of the assay. The final reaction mixture was incubated for 30 mins at 37 °C. To assess specific inhibition of Mur ligases, each of the ligase was pre-incubated with inhibitors separately and then added to the one-pot reaction mixture. The net Pi released was calculated as described earlier. In the ‘no drug’ control reaction, the organic solvent (DMSO) used in dissolving inhibitory compounds was added at 5% concentration to the one-pot assay, while Isoniazid, a standard anti-TB drug with no known effect on Mur activity, was inculded as another control to ascertain the specificity of the tested inhibitors in the study.

MurB = MurB (Mycobacterium tuberculosis, UniProt P9WJL9); assay: inhibition of individual Mur enzyme: MurB; format: biochemical; conditions: for remaining activity at 100 µM: at 100 μM compound, vs 'no drug' control (5% DMSO), read-out: RA (residual activity), MurB
Description: To assay MurB activity, the MurA reaction after 30 mins of incubation was supplemented with 10 mM KCl, 0.2 mM NADPH and 60 nM of MurB enzyme in a total volume of 100 μl. The absorbance at 340 nm was monitored over 5 min to calculate the rate of NADPH oxidation. The control reaction contained all the components except MurB.
as §1

MurC = MurC (Mycobacterium tuberculosis, UniProt P9WJL7); assay: inhibition of individual Mur enzyme: MurC; format: biochemical; conditions: for remaining activity at 100 µM: at 100 μM compound, vs 'no drug' control (5% DMSO), read-out: RA (residual activity), MurC
Description: (§2) Each Mur ligase reaction was performed at 37 °C with an incubation period of 1 h. To measure the activity of MurC, the completed MurB reaction was supplemented with 1 mM L-Alanine, 10 mM MgCl2 and 1 mM ATP. MurD-F ligase activities were performed sequentially, supplementing the prior reaction with 1 mM each of the required substrate (D-Glutamate, meso-Diaminopimelic acid and D -Alanine-D-Alanine, respectively). The control reaction contained all the components except the enzyme that was being tested (e.g. the control reaction for MurC assay contained all the components except MurC). For MurD and MurF reaction, purified MBP at 1 μg concentration was added to the reaction mixture instead of the enzymes. Estimation of net Pi was done as previously described in the MurA assay.
as §1

MurD = MurD (Mycobacterium tuberculosis, UniProt P9WJL5); assay: inhibition of individual Mur enzyme: MurD; format: biochemical; conditions: for remaining activity at 100 µM: at 100 μM compound, vs 'no drug' control (5% DMSO), read-out: RA (residual activity), MurD
Description: as §2, §1

MurE = MurE (Mycobacterium tuberculosis, UniProt P9WJL3); assay: inhibition of individual Mur enzyme: MurE; format: biochemical
MurF = MurF (Mycobacterium tuberculosis, UniProt P9WJL1); assay: inhibition of individual Mur enzyme: MurF; format: biochemical
Description: as §2, §1

MurE from E.coli = test system: MurE from E.coli; set-up: method as in PMID 25851408; conditions: range stated jointly for MurE and MurF; cited from earlier work
[2] = test system: Mur pathway (MurA-MurF) enzymes from Mtb; assay: ESI-MS analysis of one-pot assay with inhibitor; format: biochemical, Mycobacterium tuberculosis; conditions: Fig. S5
C=C(OP(=O)(O)O)C(=O)O = assay: purified protein, by the assay type; conditions: pH 7.0; 37.0 °C

MurE, sequence (P9WJL3 whole entry): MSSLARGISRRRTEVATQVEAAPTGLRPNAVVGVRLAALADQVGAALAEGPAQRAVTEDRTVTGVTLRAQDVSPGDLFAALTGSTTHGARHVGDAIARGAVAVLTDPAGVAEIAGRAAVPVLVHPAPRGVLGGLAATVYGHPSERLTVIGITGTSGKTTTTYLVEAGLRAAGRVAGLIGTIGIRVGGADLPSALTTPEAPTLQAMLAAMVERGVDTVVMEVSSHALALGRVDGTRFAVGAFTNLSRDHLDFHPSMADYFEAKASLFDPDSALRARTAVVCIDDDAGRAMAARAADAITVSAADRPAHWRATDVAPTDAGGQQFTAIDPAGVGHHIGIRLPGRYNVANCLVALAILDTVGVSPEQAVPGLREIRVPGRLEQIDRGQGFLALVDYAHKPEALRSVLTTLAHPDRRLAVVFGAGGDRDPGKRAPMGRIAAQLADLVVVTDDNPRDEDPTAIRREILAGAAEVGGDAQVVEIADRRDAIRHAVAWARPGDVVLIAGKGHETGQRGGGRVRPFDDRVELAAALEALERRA
MurD, sequence (P9WJL5 whole entry): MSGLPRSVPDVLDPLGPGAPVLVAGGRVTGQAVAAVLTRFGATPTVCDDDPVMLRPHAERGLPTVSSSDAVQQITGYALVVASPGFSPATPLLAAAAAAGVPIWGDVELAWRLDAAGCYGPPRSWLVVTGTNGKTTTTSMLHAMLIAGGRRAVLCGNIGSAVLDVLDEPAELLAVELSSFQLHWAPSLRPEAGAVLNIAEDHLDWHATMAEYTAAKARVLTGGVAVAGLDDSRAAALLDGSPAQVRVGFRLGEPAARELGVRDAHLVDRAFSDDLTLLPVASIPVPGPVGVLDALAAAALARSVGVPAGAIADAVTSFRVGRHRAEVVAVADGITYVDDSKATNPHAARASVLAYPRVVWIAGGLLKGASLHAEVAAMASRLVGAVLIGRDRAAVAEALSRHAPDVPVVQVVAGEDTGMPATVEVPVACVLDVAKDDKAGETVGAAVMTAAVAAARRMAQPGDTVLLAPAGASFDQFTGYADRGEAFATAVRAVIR
MurA, sequence (P9WJM1 whole entry): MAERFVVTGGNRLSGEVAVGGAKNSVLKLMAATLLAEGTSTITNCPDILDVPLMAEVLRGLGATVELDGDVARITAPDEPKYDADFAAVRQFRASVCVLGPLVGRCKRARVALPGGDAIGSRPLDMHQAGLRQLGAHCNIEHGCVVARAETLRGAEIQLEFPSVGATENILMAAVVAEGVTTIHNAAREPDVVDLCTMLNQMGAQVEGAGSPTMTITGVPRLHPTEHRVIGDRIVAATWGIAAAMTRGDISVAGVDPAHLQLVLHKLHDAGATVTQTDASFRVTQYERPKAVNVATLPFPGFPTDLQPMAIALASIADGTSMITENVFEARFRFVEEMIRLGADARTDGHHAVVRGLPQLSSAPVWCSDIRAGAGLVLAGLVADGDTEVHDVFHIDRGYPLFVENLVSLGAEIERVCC
MurB, sequence (P9WJL9 whole entry): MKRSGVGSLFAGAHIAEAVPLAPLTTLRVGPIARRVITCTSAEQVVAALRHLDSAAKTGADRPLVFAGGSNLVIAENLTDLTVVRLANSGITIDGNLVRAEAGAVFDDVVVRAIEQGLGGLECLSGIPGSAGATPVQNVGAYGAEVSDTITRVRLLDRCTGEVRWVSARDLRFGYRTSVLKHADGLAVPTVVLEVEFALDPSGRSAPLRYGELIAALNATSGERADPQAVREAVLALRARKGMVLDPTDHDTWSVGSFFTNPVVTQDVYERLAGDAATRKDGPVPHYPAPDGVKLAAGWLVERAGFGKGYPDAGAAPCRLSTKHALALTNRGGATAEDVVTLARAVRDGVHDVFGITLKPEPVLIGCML
MurC, sequence (P9WJL7 whole entry): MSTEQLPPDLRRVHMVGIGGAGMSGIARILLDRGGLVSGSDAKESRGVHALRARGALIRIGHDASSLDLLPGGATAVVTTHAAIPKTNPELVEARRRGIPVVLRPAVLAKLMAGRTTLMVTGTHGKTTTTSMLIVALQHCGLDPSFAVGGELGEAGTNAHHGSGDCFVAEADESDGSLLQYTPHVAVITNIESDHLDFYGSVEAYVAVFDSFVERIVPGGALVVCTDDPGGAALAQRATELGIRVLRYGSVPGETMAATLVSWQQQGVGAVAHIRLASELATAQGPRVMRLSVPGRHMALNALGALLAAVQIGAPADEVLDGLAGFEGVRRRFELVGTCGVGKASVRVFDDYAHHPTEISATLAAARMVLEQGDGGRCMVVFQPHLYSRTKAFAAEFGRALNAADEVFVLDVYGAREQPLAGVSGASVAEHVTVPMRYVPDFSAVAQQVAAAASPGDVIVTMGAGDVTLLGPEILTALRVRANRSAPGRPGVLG
MurF, sequence (P9WJL1 whole entry): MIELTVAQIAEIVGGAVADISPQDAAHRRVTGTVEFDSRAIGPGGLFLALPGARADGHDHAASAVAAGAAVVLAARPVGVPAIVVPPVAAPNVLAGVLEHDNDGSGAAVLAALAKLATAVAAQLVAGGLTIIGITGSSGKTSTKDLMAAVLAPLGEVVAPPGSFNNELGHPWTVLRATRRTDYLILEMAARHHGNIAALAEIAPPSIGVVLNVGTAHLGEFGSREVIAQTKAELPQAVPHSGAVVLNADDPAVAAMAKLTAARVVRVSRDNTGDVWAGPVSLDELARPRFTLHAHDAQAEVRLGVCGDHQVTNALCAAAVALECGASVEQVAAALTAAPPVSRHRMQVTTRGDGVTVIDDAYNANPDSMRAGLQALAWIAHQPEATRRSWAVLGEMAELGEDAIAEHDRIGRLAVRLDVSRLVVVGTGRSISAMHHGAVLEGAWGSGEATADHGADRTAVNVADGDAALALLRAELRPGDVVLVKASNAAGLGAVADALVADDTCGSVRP

Row | Compound | Percentage inhibition, one-pot assay [1] | pIC50 [1] | inhibition of MurA (in words) (MurA) | remaining activity at 100 µM (MurA) | inhibition of MurB (in words) (MurB) | remaining activity at 100 µM (MurB) | inhibition of MurC (in words) (MurC) | remaining activity at 100 µM (MurC) | inhibition of MurD (in words) (MurD) | remaining activity at 100 µM (MurD) | pIC50 (MurE) | pIC50 (MurF) | pIC50 (MurE from E.coli) | pIC50 (MurE; six compound concentrations 5-100 μM, read-out: IC50, MurE) | final product (UDP-MurNAc pentapeptide) formation in one-pot assay by ESI-MS [2] | Km (C=C(OP(=O)(O)O)C(=O)O) | Vmax (C=C(OP(=O)(O)O)C(=O)O)
1 | O=C(O)c1cc(-c2ccc(/C=C3/SC(=S)N(c4ccc([N+](=O)[O-])cc4)C3=O)o2)ccc1Cl [Compound 3] | 97% | 4.71 | marginal inhibition | 75% | no inhibition | > 100% | marginal inhibition | 66% | marginal inhibition | 88% | 4.21 | 4.34 | 4.80 to 4.96 | – | – | – | –
2 | O=C(O)c1cc(-c2ccc(/C=C3/SC(=S)N(c4cccc([N+](=O)[O-])c4)C3=O)o2)ccc1Cl [Compound 4] | 93% | 5.08 | did not inhibit | > 100% | did not inhibit | > 100% | marginal inhibition | 73% | marginal inhibition | 85% | 4.77 | 4.59 | 4.80 to 4.96 | – | – | – | –
3 | N[C@@H]1CON=C1O [D-Cycloserine, reference compound] | – | 4.13 | – | > 100% | – | > 100% | – | 64% | – | 72% | – | 4.17 | – | 4.01 | inhibition of final product formation | – | –
4 | Mtb MurA (Mycobacterium tuberculosis H37Rv) | – | – | – | – | – | – | – | – | – | – | – | – | – | – | – | 527.8 µM | 0.173 µM/min
